ChEMBL document CHEMBL1201862, “PubChem BioAssay data set” (2004)
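A five-concentration, 48-hour dose response in 96-well plates underlies each endpoint, interpolated linearly between surrounding concentrations. Here, GI50 denotes the concentration required for 50% inhibition of growth.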 Activity calls are given as the source filed them. Rule as the data show it: active = GI50 up to about 1.1 µM and inactive = higher.

Legend:
Experiment in all cases: NCI-60 cell line screen, 48 h
[1] = test system: SK-MEL-28
[2] = test system: OVCAR-4
[3] = test system: OVCAR-5
[4] = test system: CAKI-1
[5] = test system: NCI/ADR-RES
[6] = test system: PC-3
[7] = test system: SK-OV-3
[8] = test system: RPMI-8226
[9] = test system: UACC-257
[10] = test system: LOX IMVI
[11] = test system: K562
[12] = test system: MDA-MB-231
[13] = test system: IGROV-1
[14] = test system: CCRF-CEM
[15] = test system: EKVX
[16] = test system: MDA-N
[17] = test system: NCI-H522
[18] = test system: MCF7
[19] = test system: SF-539

Row | SMILES | GI50 [1] | GI50 [2] | GI50 [3] | GI50 [4] | GI50 [5] | GI50 [6] | GI50 [7] | GI50 [8] | GI50 [9] | GI50 [10] | GI50 [11] | GI50 [12] | GI50 [13] | GI50 [14] | GI50 [15] | GI50 [16] | GI50 [17] | GI50 [18] | GI50 [19]
1 | O=c1c2ccccc2nc(Cc2nc(-c3ccc(Cl)cc3)cs2)n1-c1ccc(Cl)cc1 | 23.8 µM (inactive) | 76.2 µM (inactive) | 27.1 µM (inactive) | > 100 µM (inactive) | 57.5 µM (inactive) | 48 µM (inactive) | > 100 µM (inactive) | 23.8 µM (inactive) | 67.6 µM (inactive) | 50.2 µM (inactive) | 5.01 µM (inactive) | > 100 µM (inactive) | 45.2 µM (inactive) | 17.6 µM (inactive) | 64.6 µM (inactive) | 41.4 µM (inactive) | > 100 µM (inactive) | 46.9 µM (inactive) | –
2 | C=C(C)C(=O)O[C@H]1CC2=CC(CC(C)=C[C@H]3OC(=O)C(=C)C13)OC2=O (stereo partly drawn) | 14.1 µM (inactive) | 34.8 µM (inactive) | 33.7 µM (inactive) | 17.2 µM (inactive) | 38.3 µM (inactive) | 23 µM (inactive) | – | 2.93 µM (inactive) | 25.5 µM (inactive) | 21 µM (inactive) | 7.74 µM (inactive) | 25.2 µM (inactive) | 33 µM (inactive) | 4.74 µM (inactive) | 20.6 µM (inactive) | 24.4 µM (inactive) | 2.53 µM (inactive) | 13.1 µM (inactive) | 29.7 µM (inactive)
3 | C[C@H]1[C@H]2[C@H]3CC[C@@H]4[C@@]5(C)CC[C@H](O)C(C)(C)[C@@H]5CC[C@@]4(C)[C@]3(C)C[C@H](O)[C@@]2(C)C[C@H]2O[C@]21C | 15.5 µM (inactive) | 25.1 µM (inactive) | 24.6 µM (inactive) | 25.1 µM (inactive) | 18.5 µM (inactive) | 13.7 µM (inactive) | 14.7 µM (inactive) | 19.4 µM (inactive) | 16.8 µM (inactive) | 16.4 µM (inactive) | – | 18 µM (inactive) | 27.4 µM (inactive) | 32.4 µM (inactive) | 24.2 µM (inactive) | 18.9 µM (inactive) | 22.3 µM (inactive) | 16.5 µM (inactive) | 18.8 µM (inactive)
4 | COc1cc(C2SC(=N)Nc3c2c(C)nn3C(=O)c2ccccc2O)ccc1O (stereo not drawn) | > 10 µM (inactive) | > 2.1 µM (inactive) | > 5.53 µM (inactive) | > 2.42 µM (inactive) | > 2.38 µM (inactive) | > 4.03 µM (inactive) | > 2.17 µM (inactive) | > 2.09 µM (inactive) | 0.94 µM (active) | 1.47 µM (inactive) | 1.46 µM (inactive) | > 3.98 µM (inactive) | 1.61 µM (inactive) | 2.01 µM (inactive) | > 2.63 µM (inactive) | 1.75 µM (inactive) | > 3.84 µM (inactive) | > 2.01 µM (inactive) | –
5 | CCOC(=O)c1[nH]c2ccccc2c1C(=O)C[C@H](NC(=O)C(F)(F)F)C(=O)OC | > 100 µM (inactive) | > 100 µM (inactive) | > 100 µM (inactive) | > 100 µM (inactive) | 84.1 µM (inactive) | > 100 µM (inactive) | – | > 100 µM (inactive) | > 100 µM (inactive) | > 100 µM (inactive) | > 100 µM (inactive) | > 100 µM (inactive) | > 100 µM (inactive) | > 100 µM (inactive) | > 100 µM (inactive) | > 100 µM (inactive) | 97.3 µM (inactive) | > 100 µM (inactive) | > 100 µM (inactive)
6 | Nc1ccc(S(=O)(=O)Nc2nccs2)cc1 [SULFATHIAZOLE] | > 100 µM (inactive) | > 100 µM (inactive) | > 100 µM (inactive) | – | > 100 µM (inactive) | > 100 µM (inactive) | > 100 µM (inactive) | > 100 µM (inactive) | > 100 µM (inactive) | > 100 µM (inactive) | > 100 µM (inactive) | > 100 µM (inactive) | > 100 µM (inactive) | > 100 µM (inactive) | > 100 µM (inactive) | > 100 µM (inactive) | > 100 µM (inactive) | > 100 µM (inactive) | > 100 µM (inactive)
